In patent US20090275667A1, “USE OF ALLICIN AS PRESERVATIVE, AS DISINFECTANT, AS ANTIMICROBIAL OR AS BIOCIDAL AGENT” (Stone Island Holdings Ltd, priority 2003, published 2009):
≈ marks a conversion by molar mass, not a printed value.

Experiments:
[1] = test system: Salm. Enteriditis; test: Zones of Inhibition against common chicken bacteria; assay type: cell-based
[2] = test system: Enterococcus hirae (University of Brighton isolate); test: Modified Kelsey-Sykes test; assay type: cell-based; parameters: key: CG = Confluent growth
Source text: Allicin can be used to displace or supplement existing harmful forms of disinfectant/biocide such as chlorine, sodium hypochlorite, ozone and per-acetic acid all of which can have an adverse effect on the environment. UV radiation is also used for disinfection but power and general running costs are high. Laboratory studies have been conducted on our behalf using allicin on aqueous suspensions of bacterial species commonly used as indicators of the effectiveness of water and wastewater disinfection. To this effect, identified isolates from the faecal coliform and streptococcus groups, namely, Escherichia coli (NCTC 8156) and Enterococcus hirae (University of Brighton isolate) were used in all experiments. […]
Stock suspensions of Escherichia coli (NCTC 8156) and Enterococcus hirae (University of Brighton isolate) were cultivated in Nutrient Broth No. 2 from freeze dried isolates. Prior to each experiment, serial dilutions of the suspensions were enumerated by the spread plate method on Nutrient Agar and subsequent incubation at 37 deg C.
Initial experimental procedures were based on the methods set out in an established UK protocol (BS 6905: 1987). The Kelsy-Sykes methodology was developed as a guide to the concentrations of disinfectants which may be recommended for use under “dirty” (wastewater/sewage) conditions. It is therefore a suitable means of establishing the effectiveness of a disinfectant against a wastewater containing particulate and dissolved contaminants in addition to micro-organisms.
Therefore, with regard to wastewater/sewage considerations, the protocol was adapted. Under the revised methodology, a sample was taken from the bacterial suspension/biocide mix after the prescribed contact time and plated out onto solid media so that a colony count could be made (see Tables 1 and 2).

[3] = test system: M. plutonius; test: Investigation into bacteriostatic or bactericidal effects (Study 2); assay type: cell-based, Melissococcus plutonius; conditions: conclusion from subculture after exposure
Experimental: Where there was no growth in a replicate, at the end of one week the culture was plated out for single colonies on the appropriate agar. This was to determine whether the test item had bactericidal activity, where all the bacterial cells are killed, or bacteriostatic action, where the cells are unable to replicate in the presence of the substance, but will grow when it is removed. A further test, where 0.5 ml of the broth was transferred into 4.5 ml fresh broth (giving a 1:10 dilution) was also undertaken. There would still be some Allicin in the broth, but it should be present at a low enough concentration for growth not to be affected. Where growth occurred in the absence of Allicin, the broth was examined microscopically and plated out for single colonies to confirm the identity of the bacterium.

[4] = test system: Paenibacillus larvae subsp. pulvifaciens; test: MIC by broth microdilution, bee pathogens; assay type: cell-based; conditions: range 1000 ppm to 0.25 ppm
Source text: (§1) We tested allicia (Allisure™ Liquid) activity against several species of entomopathogenic bacteria (Paenibacillus larvae subsp. larvae, Paenibacillus larvae subsp. pulvifaciens) and fungi (Ascosphaera apis and Ascosphaera aggregata) using broth microdilution method to determine minimum inhibitory concentration (MIC) and the agar diffusion test (Kirby-Bauer) to determine zone of inhibition. Bacterial spores were isolated from the diseased honey bee larval samples. A small aliquot of heat-treated bacterial spores was suspended in 100 μl of phosphate buffered saline-pH 7.2 (PBS) and plated on semi-selective J. Agar medium, containing Nalidixic and Pipemidic acid (Alippi, A M (1995) Detection of Bacillus larvae spores in Argentinian honeys by using a semi-selective medium. Microbiologia 1995 11(3): 343-50; and Govan, V A; Allsopp, M H; Davison, S A (1999) PCR Detection Method for Rapid Identification of Paenibacillus larvae. Applied and Environmental Microbiology 65(5): 2243-2245.
(§2) The plates were incubated at 33° C. in air containing 6% CO2 and 95% RH. The initial species identification was based on morphological, biological and cultural characteristics. The bacterial culture was tested for a catalase reaction (Leboffe, M. J and Pierce, B e (1999) A photographic atlas for the microbiology laboratory. Morton Publishing Company. 254 pp). The bacterial colonies were characterized by shape, margins and color. Gram-positive stained smears (Gram-stain Reagents Kit, EMD Chemicals Inc., NJ) were examined for morphological identification of vegetative cells and spores.
(§3) DNA based PCR identification was performed to corroborate identification of the bacterial species. Bacterial cells from culture plates were added directly to 30 μl of PCR reaction. The PCR primers used in the reaction were based on the 16S RNA sequence to selectively amplify a fragment of 973 by unique to P. larvae (Govan et al., 1999). The PCR products were visualized by 0.8% agarose gel electrophoresis in TAE buffer and ethidium bromide staining. The reference strains of bacteria were used as a control in PCR reactions and were provided by the National Center for Agricultural Research, Peoria, Ill. P. l. larvae (NRRL B-3560, B-2605) and P. l. palvifaciens (NRRL B-3688, B-3685, B-3689, NRS-1687, P. alvei B383).
(§4) Positive controls contained the antibiotic Tylosin (Tylan® 50, Elanco Animal Health Inc., IN) and negative controls contained no antibiotics. […] The optical densities of cultures (OD 600) were recorded 24 h and 48 h post inoculation, depending on the growth rate of the microbial species. […] Minimum bactericidal concentration values (NBC) were determined for allicin by plating out 100 μl of bacterial cultures derived from the MIC assay. […]

[5] = test system: Paenibacillus larvae subsp. larvae; test: MIC by broth microdilution, bee pathogens; assay type: cell-based; conditions: range 1000 ppm to 0.25 ppm
Source text: as §1, §2, §3, §4

[6] = allicin conc. 0.9 % (w/v), 10 mins
[7] = allicin conc. 0.9 % (w/v), 20 mins
[8] = allicin conc. 0.9 % (w/v), 30 mins
[9] = allicin conc. 1.08 % (w/v), 10 mins
[10] = allicin conc. 1.08 % (w/v), 20 mins
[11] = allicin conc. 1.26 % (w/v), 10 mins
[12] = allicin conc. 1.26 % (w/v), 20 mins
[13] = allicin conc. 1.62 % (w/v), 10 mins
[14] = allicin conc. 1.62 % (w/v), 20 mins

C=CCS[S+]([O-])CC=C (stereo not shown) [allicin, Allicin]
zone of inhibition ([1]; 166 ppm (1:6 dilution)): 0 mm | zone of inhibition ([1]; 1000 ppm): 22 mm | Numbers of colony forming units killed [2, 6]: CG | Percentage reduction in colony forming units [2, 6]: CG | Numbers of colony forming units killed [2, 7]: CG | Percentage reduction in colony forming units [2, 7]: CG | Numbers of colony forming units killed [2, 8]: CG | Percentage reduction in colony forming units [2, 8]: CG | Numbers of colony forming units killed [2, 9]: CG | Percentage reduction in colony forming units [2, 9]: CG | Numbers of colony forming units killed [2, 10]: CG | Percentage reduction in colony forming units [2, 10]: CG | Percentage reduction in colony forming units ([2]; allicin conc. 1.08 % (w/v), 30 mins): 77% | Numbers of colony forming units killed [2, 11]: CG | Percentage reduction in colony forming units [2, 11]: CG | Numbers of colony forming units killed [2, 12]: CG | Percentage reduction in colony forming units [2, 12]: CG | Percentage reduction in colony forming units ([2]; allicin conc. 1.26 % (w/v), 30 mins): 91% | Percentage reduction in colony forming units ([2]; allicin conc. 1.4 % (w/v), 10 mins): CG | Percentage reduction in colony forming units ([2]; allicin conc. 1.4 % (w/v), 20 mins): CG | Percentage reduction in colony forming units ([2]; allicin conc. 1.4 % (w/v), 30 mins): 87% | Numbers of colony forming units killed ([2]; allicin conc. 1.44 % (w/v), 10 mins): CG | Numbers of colony forming units killed ([2]; allicin conc. 1.44 % (w/v), 20 mins): CG | Numbers of colony forming units killed [2, 13]: CG | Percentage reduction in colony forming units [2, 13]: CG | Numbers of colony forming units killed [2, 14]: CG | Percentage reduction in colony forming units [2, 14]: CG | Percentage reduction in colony forming units ([2]; allicin conc. 1.62 % (w/v), 30 mins): 89% | bacteriostatic or bactericidal effect [3]: bacteriostatic rather than bactericidal effects | MIC [4]: 350 µg/mL (≈ 2160 µM) | MIC [5]: 350 µg/mL (≈ 2160 µM)
